pIC50: −log10 of the molar value. “And” between values parts separate entries of the source, which are not always exact repeats. Identical values can stand only once. Like-named read-outs stand apart in the source and are kept apart here.
Columns and labels:
[1] = target: T1, human MMP-9 (amino acids 107-446) (Homo sapiens, UniProt P14780); test: MMP dose response assay for determining IC50, MMP-9; assay type: biochemical; conditions: for pIC50: recombinant enzyme, fluorescent-quench substrate 100 nM, read-out: MMP-9; for inhibition at 10 µM: read-out: MMP-9 % inhibition at 10 μM
T1 construct: human MMP-9 (amino acids 107-446); made in house
Method: (§1) MMP Dose Response Assay for Determining IC50
(§2) The following method was used for determining IC50 values of different inhibitor compounds against multiple MMP enzymes. Frozen stocks of recombinantly produced MMPs were prepared in assay buffer (50 mM HEPES pH 7.4, 10 mM CaCl2, 0.05% Brij-35). […] Enzyme concentrations in the assay were determined empirically and set such that proteolytic activity was maintained in a linear range over the time-course of the experiment. […] Each concentration for each test compound was tested in triplicate. MMP enzymes were equilibrated with compounds for 1 hour at room temperature, then a fluorescent-quench substrate (Acetyl-Cys(Eu)-Pro-Leu-Gly-Leu-Lys-(QSY7)-Ala-Arg-amide) was added to a final concentration of 100 nM. […] Data was analyzed by first calculating average background value from wells that contained only substrate, and this value was subtracted from the entire plate. The 100%, or maximum value, was determined by averaging control wells that contained enzyme, substrate and DMSO. For each well, the percent of control was calculated by dividing the well value by the average DMSO value obtained above.

[2] = target: T2, human MMP-2 (amino acids 1-660) (Homo sapiens, UniProt P08253); test: MMP dose response assay for determining IC50, MMP-2; assay type: biochemical; conditions: for pIC50: recombinant enzyme, fluorescent-quench substrate 100 nM, read-out: MMP-2; for inhibition at 10 µM: read-out: MMP-2 % inhibition at 10 μM
T2 construct: human MMP-2 (amino acids 1-660); made in house
T2 sequence (P08253 110-660): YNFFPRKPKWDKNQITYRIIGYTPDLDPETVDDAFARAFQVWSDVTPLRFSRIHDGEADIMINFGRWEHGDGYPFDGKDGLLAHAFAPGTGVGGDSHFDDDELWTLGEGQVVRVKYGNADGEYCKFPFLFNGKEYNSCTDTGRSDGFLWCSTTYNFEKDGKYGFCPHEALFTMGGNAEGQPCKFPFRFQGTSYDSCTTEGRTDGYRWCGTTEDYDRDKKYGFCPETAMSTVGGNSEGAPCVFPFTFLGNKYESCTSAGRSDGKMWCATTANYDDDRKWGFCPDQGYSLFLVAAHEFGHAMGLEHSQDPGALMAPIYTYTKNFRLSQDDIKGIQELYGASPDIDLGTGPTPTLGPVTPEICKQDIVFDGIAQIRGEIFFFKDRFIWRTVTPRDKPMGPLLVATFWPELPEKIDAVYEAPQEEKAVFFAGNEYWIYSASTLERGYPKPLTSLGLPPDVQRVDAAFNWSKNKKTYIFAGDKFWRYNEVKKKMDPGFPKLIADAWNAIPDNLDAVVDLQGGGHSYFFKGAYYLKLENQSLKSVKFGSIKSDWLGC
Method: as §1, §2

T1 sequence (P14780 107-446): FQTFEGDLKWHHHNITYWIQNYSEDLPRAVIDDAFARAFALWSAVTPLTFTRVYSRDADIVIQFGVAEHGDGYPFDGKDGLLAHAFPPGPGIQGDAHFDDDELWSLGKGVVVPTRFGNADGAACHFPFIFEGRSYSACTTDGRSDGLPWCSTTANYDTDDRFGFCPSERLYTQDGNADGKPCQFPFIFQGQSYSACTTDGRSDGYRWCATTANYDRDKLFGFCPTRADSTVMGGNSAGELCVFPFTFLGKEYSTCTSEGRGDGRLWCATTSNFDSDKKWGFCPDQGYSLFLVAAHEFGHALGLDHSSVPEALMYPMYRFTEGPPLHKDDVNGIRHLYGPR

pIC50 [1]	pIC50 [2]	inhibition at 10 µM [1]	inhibition at 10 µM [2]	SMILES	IC50 ([2]; MMP-2 (nM))
7.06	6.58	–	–	CC(C)CN(O)C(=O)[C@H](CN(c1ccc(Oc2ccc(C(F)(F)F)cc2)cc1)S(C)(=O)=O)N1CCOCC1 [Example 5, N-Hydroxy,N-(2-methylpropyl)(2S)-2-(morpholin-4-yl)-3-{N-[4-(4-trifluoromethylphenoxy)phenyl],N-methanesulfonylamino}propionamide]	–
–	–	78.7%	83.6%	CS(=O)(=O)N(C[C@@H](O)C(=O)NO)c1ccc(-c2ccccc2)cc1 [Example 9, N-Hydroxy (2R)-2-hydroxy-3-[N-(4-phenyl)phenyl,N-methanesulfonylamino]propionamide]	–
–	–	79%	87%	CS(=O)(=O)N(C[C@H](O)C(=O)NO)c1ccc(-c2ccccc2)cc1 [Example 10, N-Hydroxy (2S)-2-hydroxy-3-[N-(4-phenyl)phenyl,N-methanesulfonylamino]propionamide]	–
9.16	7.73	–	–	COc1ccc(N[C@@H](CN(c2ccc(Oc3ccc(C)cc3)cc2)S(C)(=O)=O)C(=O)NO)cc1 [Example 48, N-Hydroxy (2S)-2-(4-methoxyphenyl)amino-3-{N-[4-(4-methylphenoxy)phenyl],N-methanesulfonylamino}propionamide]	–
7.20 and 7.35	6.56 and 6.49	–	–	Cc1ccc(Sc2ccc(N(C[C@H](O)C(=O)NO)S(C)(=O)=O)cc2)cc1 [Example 49, N-Hydroxy (2S)-2-hydroxy-3-{N-[4-(4-methylthiophenoxy)phenyl],N-methanesulfonylamino}propionamide]	–
7.13	6.06	–	–	Cc1ccc(Oc2ccc(N(C[C@H](Nc3ccc(OC(F)(F)F)cc3)C(=O)NO)S(C)(=O)=O)cc2)cc1 [Example 50, N-Hydroxy (2S)-3-{N-[4-(4-methylphenoxy)phenyl],N-methanesulfonylamino}-2-(4-trifluoromethoxyphenyl)aminopropionamide]	–
9.21	7.57	–	–	COc1cccc(N[C@@H](CN(c2ccc(Oc3ccc(C)cc3)cc2)S(C)(=O)=O)C(=O)NO)c1 [Example 51, N-Hydroxy (2S)-2-(3-methoxyphenyl)amino-3-{N-[4-(4-methylphenoxy)phenyl],N-methanesulfonylamino}propionamide]	–
6.78	5.97	–	–	Cc1ccc(Oc2ccc(N(C[C@H](Nc3cccc(OC(F)(F)F)c3)C(=O)NO)S(C)(=O)=O)cc2)cc1 [Example 52, N-Hydroxy (2S)-3-{N-[4-(4-methylphenoxy)phenyl],N-methanesulfonylamino}-2-(3-trifluoromethoxyphenyl)aminopropionamide]	–
6.33	–	–	–	CS(=O)(=O)N(C[C@H](O)C(=O)NO)c1ccc(Oc2ccc(C(F)(F)F)cn2)cc1 [Example 53, N-Hydroxy (2S)-2-hydroxy-3-{N-{4-[(5-trifluoromethylpyridin-2-yl)oxy]phenyl},N-methanesulfonylamino}propionamide]	–
7.76 and 7.97	6.76 and 6.99	–	–	CS(=O)(=O)N(C[C@H](O)C(=O)NO)c1ccc(Oc2ccc(C(F)(F)F)cc2)cc1 [Example 54, N-Hydroxy (2S)-2-hydroxy-3-{N-[4-(4-trifluoromethylphenoxy)phenyl],N-methanesulfonylamino}propionamide]	–
6.39	5.81	–	–	CS(=O)(=O)N(C[C@H](Nc1cccc(F)c1)C(=O)NO)c1ccc(Oc2ccc(C(F)(F)F)cn2)cc1 [Example 55, N-Hydroxy (2S)-2-(3-fluorophenyl)amino-3-{N-{4-[(5-trifluoromethylpyridin-2-yl)oxy]phenyl},N-methanesulfonylamino}propionamide]	–
6.84	6.40	–	–	CC(C)N[C@@H](CN(c1ccc(Oc2ccc(C(F)(F)F)cn2)cc1)S(C)(=O)=O)C(=O)NO [Example 56, N-Hydroxy (2S)-2-(2-propyl)amino-3-{N-{4-[(5-trifluoromethylpyridin-2-yl)oxyl]phenyl},N-methanesulfonylamino}propionamide]	–
6.64	6.39	–	–	CS(=O)(=O)N(C[C@@H](C(=O)NO)N1CCOCC1)c1ccc(Oc2ccc(C(F)(F)F)cn2)cc1 [Example 57, N-Hydroxy (2S)-2-(morpholin-4-yl)-3-{N-{4-[(5-trifluoromethylpyridin-2-yl)oxy]phenyl},N-methanesulfonylamino}propionamide]	–
8.63	8.04	–	–	CC(C)N[C@@H](CN(c1ccc(Oc2ccc(C(F)(F)F)cc2)cc1)S(C)(=O)=O)C(=O)NO [Example 58, N-Hydroxy (2S)-2-(2-propyl)amino-3-{N-[4-(4-trifluoromethylphenoxy)phenyl],N-methanesulfonylamino}propionamide]	–
7.50	6.33	–	–	CS(=O)(=O)N(C[C@H](Nc1cccc(F)c1)C(=O)NO)c1ccc(Oc2ccc(C(F)(F)F)cc2)cc1 [Example 59, N-Hydroxy (2S)-2-(3-fluorophenyl)amino-3-{N-[4-(4-trifluoromethylphenoxy)phenyl],N-methanesulfonylamino}propionamide]	–
9.05	8.50	–	–	CS(=O)(=O)N(C[C@@H](C(=O)NO)N1CCC(O)CC1)c1ccc(Oc2ccc(Cl)cc2)cc1 [Example 88, N-Hydroxy (2S)-3-{N-[4-(4-chlorophenoxy)phenyl],N-methanesulfonylamino}-2-(4-hydroxypiperidin-1-yl)propionamide]	–
8.70	8.26	–	–	CS(=O)(=O)N(C[C@@H](C(=O)NO)N1CCOCC1)c1ccc(Oc2ccc(Cl)cc2)cc1 [Example 89, N-Hydroxy (2S)-2-(morpholin-4-yl)-3-{N-[4-(4-chlorophenoxy)phenyl],N-methanesulfonylamino}propionamide]	–
7.19 and 7.41	6.51 and 6.60	–	–	CS(=O)(=O)N(C[C@H](O)C(=O)NO)c1ccc(Sc2ccc(F)cc2)cc1 [Example 90, N-Hydroxy (2S)-2-hydroxy-3-{N-[4-(4-fluorothiophenoxy)phenyl],N-methanesulfonylamino}propionamide]	–
8.51	8.06	–	–	CC(C)N1CCN([C@@H](CN(c2ccc(Oc3ccc(Cl)cc3)cc2)S(C)(=O)=O)C(=O)NO)CC1 [Example 91, N-Hydroxy (2S)-3-{N-[4-(4-chlorophenoxy)phenyl],N-methanesulfonylamino}-2-[4-(2-propyl)piperazin-1-yl]Propionamide]	–
8.62	8.19	–	–	CN1CCN([C@@H](CN(c2ccc(Oc3ccc(Cl)cc3)cc2)S(C)(=O)=O)C(=O)NO)CC1 [Example 92, N-Hydroxy (2S)-3-{N-[4-(4-chlorophenoxy)phenyl],N-methanesulfonylamino}-2-(4-methylpiperazin-1-yl)propionamide]	–
7.27	6.08	–	–	CS(=O)(=O)N(C[C@H](NC(=O)C1CCOCC1)C(=O)NO)c1ccc(Oc2ccc(C(F)(F)F)cc2)cc1 [Example 93, N-Hydroxy (2S)-2-[(tetrahydropyran-4-yl)carbonylamino]-3-{N-[4-(4-trifluoromethylphenoxy)phenyl],N-methanesulfonylamino}propionamide]	–
6.95	6.98	–	–	CC(C)CC#Cc1ccc(N(C[C@@H](C(=O)NO)N2CCOCC2)S(C)(=O)=O)cc1 [Example 94, N-Hydroxy (2S)-3-{N-[4-(4-methylpentyn-1-yl)phenyl],N-methanesulfonylamino}-2-(morpholin-4-yl)propionamide]	–

SMILES	pIC50 [1]	pIC50 [2]	inhibition at 10 µM [1]	inhibition at 10 µM [2]	IC50 ([2]; MMP-2 (nM))
Cc1ccc(Oc2ccc(N(C[C@@H](O)C(=O)NO)S(C)(=O)=O)cc2)cc1 [Example 7, N-Hydroxy (2R)-2-hydroxy-3-{N-[4-(4-methylphenoxy)phenyl],N-methanesulfonylamino}propionamide]	7.69 and 8.50	7.09 and 7.28	–	–	–
Cc1ccc(Oc2ccc(N(C[C@H](O)C(=O)NO)S(C)(=O)=O)cc2)cc1 [Example 8, N-Hydroxy (2S)-2-hydroxy-3-{N-[4-(4-methylphenoxy)phenyl],N-methanesulfonylamino}propionamide]	7.98 and 7.95 and 8.00 and 8.47 and 8.33 and 8.12	7.05 and 7.17 and 7.01 and 7.19 and 7.28 and 7.15	–	–	–
COc1ccc(C#Cc2ccc(N(C[C@H](O)C(=O)NO)S(C)(=O)=O)cc2)cc1 [Example 61, N-Hydroxy (2S)-2-hydroxy-3-{N-[4-(4-methoxyphenylacetylene)phenyl],N-methanesulfonylamino}propionamide]	7.04	–	–	–	31.6 nM
